Data as given in patent US20120164083A1, “Sweetness Enhancers Including Rebaudioside A or D” (Redpoint Bio Corporation, priority 2009, published 2012).
“And” between values parts separate entries of the source, which are not always exact repeats. Identical values can stand only once. “Also recorded” adds a separate entry of the source.

What was measured:
Type in all cases: in vivo, human
expert taste panel [1] = experiment: double-blind controlled sweetness intensity test of solutions, sequential monadic, sip and spit (Example 1 protocol); conditions: for sweetness of the solution compared with 7% (w/v-%) fructose solution: 300 μM in 5% (w/v-%) fructose solution; for sweetness of the solution compared with 7% (w/v-%) sucrose solution: 300 μM in 5% (w/v-%) sucrose solution, 20 judges; for mean sweetness intensity score: scale 0 to 8
expert taste panel [2] = experiment: double-blind controlled sweetness intensity test of enhancer combinations, taste and swallow (Example 12 protocol); conditions: 5% (w/v-%) sucrose solution alone; scale 0 to 8
Experimental: The sweetness enhancing effect of the combination of 40 μM Reb A (purity>95%) and 300 μM Reb C (Chromadex, CA; purity 94.9%; 2.9% impurities other than water) on 5% (w/v-%) sucrose solution was evaluated in a double-blind controlled test conducted according to the following protocol. Four products were evaluated by trained judges as follows: • low concentration sucrose (5% w/v) • low concentration sucrose+sweetness enhancer 1 (40 μM Reb A) • low concentration sucrose+sweetness enhancer 2 (300 μM Reb C) • low concentration sucrose+sweetness enhancer 1+sweetness enhancer 2
The products were evaluated using a sequential monadic test protocol. Subjects were given three 10 ml samples to evaluate. Each subject was directed to taste and swallow each sample and then assess the sweetness intensity of the sample. The intensity was rated on a score card by marking a numerical value along a scale from 0 to 8 (e.g., 0=none, 2=slight, 4=definite, 8=very strong). Following the decision regarding the sweetness intensity, subjects were instructed to vigorously rinse their mouth with water. Subjects then were given unsalted crackers to cleanse the palate. […] A second sample was then presented and evaluated as above and the same procedure was followed until all three products were evaluated. […]

panelists = experiment: quantitative flavor profile by trained panelists (Example 11)
Experimental: The taste of 150, 300, and 600 μM Reb C was evaluated by a test group. 10 panelists were trained over a period of a few weeks to provide a quantitative flavor profile of Reb C. Panelists first were trained using standard tastants representing the different taste modalities given in FIG. 10 (i.e., sweet, bitter, salt, sour, and licorice). They then were trained to use the scales when flavors were mixed together. All intensity ratings are on scales ranging from 0 (no taste) to 8 (highest intensity). The intensity rating for sweet is essentially the same as used in Examples 1 and 6. The taste profiles were obtained for 150, 300, and 600 μM Reb C. Reb A (0.2 mg/ml, a concentration used in some food/beverage applications for sweetening) was also evaluated in the test for comparison. The scale is not linear at the bottom. A rating of 1 is around the threshold for sweetness detection.

subjects = experiment: qualitative taste evaluation of Reb C water solutions (forced-choice and open report, Example 3); conditions: for qualitative taste description: one line per subject
Experimental: Subjects were asked to sip most or all of the 10 ml from the first cup, swish the liquid in their oral cavity, and expectorate into a cup, then rinse their mouths vigorously with water. Soon thereafter, the contents of the second cup were sampled in the same manner. Then, subjects were asked to choose the sweeter of the two samples, or if not sweet, to describe the qualitative taste profile of the sample having a detectable taste. […] The subjects have the following qualitative taste descriptions: […]

expert taste panel [3] = experiment: double-blind controlled sweetness intensity test in iced tea, taste and swallow (Example 6 protocol)
Experimental: The sweetness enhancing effect of 300 μM Reb C (Chromadex, CA; purity 94.9%; […]) (equivalent to the sweetness intensity of an 8% (w/v-%) sucrose solution) was evaluated in a double-blind controlled test conducted according to the following protocol. Three products were evaluated by trained judges as follows: • high concentration HFCS (14.29% w/v; equivalent to 11% w/v sucrose solution) • low concentration HFCS (10.39% w/v; equivalent to 8% w/v sucrose solution) • low concentration HFCS+sweetness enhancer (test compound)
The products were evaluated using a sequential monadic test protocol. Subjects were given three 10 ml samples to evaluate. Each subject was directed to taste and swallow each sample and then assess the sweetness intensity of the sample. The intensity was rated on a score card by marking a numerical value along a scale from 0 to 8 (e.g., 0=none, 2=slight, 4=definite, 8=very strong). Following the decision regarding the sweetness intensity, subjects were instructed to vigorously rinse their mouth with water. Subjects then were given unsalted crackers to cleanse the palate. A period of 10 minutes elapsed between presentations of each sample to reduce the potential influence of residual taste effects. A second sample was then presented and evaluated as above and the same procedure was followed until all three products were evaluated. […]

[4] = 300 μM in 8% (w/v-%) sucrose solution
[5] = 250 μM water solution, five subjects

Molecule	sweetness of the solution compared with 7% (w/v-%) fructose solution (expert taste panel [1])	sweetness of the solution compared with 7% (w/v-%) sucrose solution (expert taste panel [1])	off-tastes (expert taste panel [1]; [4])	sweetness of the solution compared with 11% (w/v-%) sucrose solution (expert taste panel [1]; [4])	mean sweetness intensity score (expert taste panel [1]; 8% (w/v-%) sucrose solution with 300 μM Dulc A)	mean sweetness intensity score (expert taste panel [1]; 8% (w/v-%) sucrose solution alone)	mean sweetness intensity score (expert taste panel [1]; 11% (w/v-%) sucrose solution alone)	mean sweetness intensity (expert taste panel [2])	sweetness of the solution compared with 8% and 11% (w/v-%) sucrose solutions (expert taste panel [1]; 150 μM in 8% (w/v-%) sucrose solution)	mean sweetness intensity score (expert taste panel [1]; 8% (w/v-%) sucrose solution with 150 μM Reb C)	unpleasant tastes, bitter and licorice (panelists; 150, 300 and 600 μM alone)	intrinsic sweetness (panelists; 150, 300 and 600 μM, scale 0 to 8)	unpleasant tastes, bitter and licorice (panelists; combined with sugar)	forced-choice identification of the sample against water (subjects; [5])	qualitative taste description (subjects; [5])	qualitative taste description (subjects; 250 and 300 μM in water, four subjects)	sweetness compared with 8% and 11% (w/v-%) sucrose (expert taste panel [3]; 300 μM in iced tea with 8% (w/v-%) sucrose)	sweetness compared with 14.29% (w/v-%) HFCS solution (equivalent to 11% sucrose) (expert taste panel [3]; 300 μM in iced tea with 10.39% (w/v-%) HFCS)
C=C1C[C@@]23CC[C@H]4[C@@](C)(CCC[C@@]4(C)C(=O)O[C@@H]4O[C@H](CO)[C@@H](O)[C@H](O)[C@H]4O)[C@@H]2CC[C@]1(O[C@@H]1O[C@H](CO)[C@@H](O)[C@H](O)[C@H]1O[C@@H]1O[C@@H](C)[C@H](O)[C@@H](O)[C@H]1O)C3 [Dulc A, dulcoside A]	achieved that of a 7% (w/v-%) fructose solution	achieved that of a 7% (w/v-%) sucrose solution	No off-tastes were detected	approached that of an 11% (w/v-%) sucrose solution	6.3	–	–	–	–	–	–	–	–	–	–	–	–	–
OC[C@H]1O[C@@](CO)(O[C@H]2O[C@H](CO)[C@@H](O)[C@H](O)[C@H]2O)[C@@H](O)[C@@H]1O [sucrose, α-D-glucopyranosyl-(1→2)-β-D-fructofuranose, reference compound]	–	–	–	–	–	5.30 and 5.0	6.95 and 6.7	about 4	–	–	–	–	–	–	–	–	–	–
rebaudioside C [Reb C]	close to that of a 7% (w/v-%) fructose solution	indistinguishable from that of a 7% (w/v-%) sucrose solution	–	close to that of an 11% (w/v-%) sucrose solution	–	–	–	–	between that of the 8% (w/v-%) sucrose solution and that of an 11% (w/v-%) sucrose solution	6.10	barely detected	little or no intrinsic sweetness	undetected	All subjects correctly identified the sample containing Reb C	Metallic, not sweet; also recorded: Aversive (“Nasty”); also recorded: Slight sweet, astringent; also recorded: Faintly sweet; also recorded: Slight sweet/licorice	Both concentrations bitter and/or licorice	between that of the 8% (w/v-%) solution and that of an 11% (w/v-%) sucrose solution	indistinguishable from that of a 14.29% (w/v-%) HFCS solution
